Where two headings read alike, the source gives them in different places.
Experiments:
[1] = in the presence of CO2 and N2 mixtures; cited from earlier work
[2] = cited from earlier work
[3] = tested on: Escherichia coli, strain MG1655; test: Effect of high partial pressure of carbon dioxide on growth and metabolism of E. coli cultured on glucose (batch fermenters); type: cell-based; conditions: pCO2~800 mbar
Protocol: Escherichia coli, strain MG1655 (ATCC Number 700926; American Type Culture Collection (ATCC), Manassas, Va.), was grown in batch mode in 1.4 L Multifors fermenters (Infors A G, Basel, Switzerland) equipped with temperature, pH and dO (dissolved oxygen) control. Initially, the fermenters contained in 1 L total volume: KH2PO4, 7.5 g/L; MgSO4.7H2O, 2.0 g/L; citric acid, 1.83 g/L; ferric ammonium citrate, 0.3 g/L; CaCl2.2H2O, 0.2 g/L; sulfuric acid (98%), 1.2 mL/L; yeast extract, 5 g/L; and glucose (10 g/L). After sterilization, 10 mL of a trace metal mixture and 1 mL of a thiamine solution (150 mM) was added and the medium was adjusted to the desired pH (see below) with 3 M NaOH. The trace metal mixture contained: MnSO4.H2O, 3 g/L; NaCl, 1 g/L; FeSO4.7H2O, 0.1 g/L; CoCl2.6H2O, 0.1 g/L; ZnSO4.7H2O, 0.1 g/L; CuSO4.5H2O, 0.0064 g/L; H3BO3, 0.01 g/L; and Na2MoO4.2H2O, 0.01 g/L. In one set of three fermenters, gas flow (air) was fixed at 0.5 VVM (volume per volume per minute) and pH was automatically maintained at pH 6.2, pH 6.5 and 6.8 with the addition of 3 M NaOH. […]
After equilibration with the gases, evident by the cessation of NaOH addition, the fermenters were inoculated at an initial OD600 of approximately 0.4 absorbance units (AU). […]

[4] = tested on: microbial growth; conditions: pCO2~300 mbar; Baez A et al. 2009; cited from earlier work

Structure (SMILES)	flammable minimum oxygen concentration (MOC) value [1]	solubility in water ([2]; at 1 bar and 20° C.)	effect on growth rate of E. coli [3]	effect on microbial growth [4]	solubility in water ([2]; at 1 bar and 25° C.)
C=CC=C [1,3-butadiene]	about 10.5%	about 735 ppm			
O=C=O [carbon dioxide]			only slight impairments of growth rate	significantly inhibit microbial growth	
C=C(C)C [isobutene]	about 13%	about 260 ppm			
C=CC(=C)C [isoprene]	about 9.7%				about 642 ppm
C=CC [propylene]	about 13%				

From patent US20150329878A1, “FERMENTATIVE PRODUCTION OF A HYDROCARBON” (GLOBAL BIOENERGIES, priority 2012, published 2015)
